Measurements reported in patent US5686637A, “Antifungal agent” (Merck & Co., Inc., priority 1995, dated 1997).
Converted amounts (≈) assume the structure as drawn. Where two headings read alike, the source gives them in different places.

Columns and labels:
[1] = tested on: Candida albicans (MY 1055); assay: microbroth dilution assay (MIC/MFC), Candida albicans (MY 1055); type: cell-based; conditions: for MIC: read-out: Minimum Inhibitory Concentration (MIC); for MFC: read-out: Minimum Fungicidal Concentration (MFC)
Experimental: (§1) In the microbroth dilution assay, microorganisms were selected by streaking a yeast culture on Sabouraud dextrose agar (SDA) incubating for 24-48 hours at 35°-37° C., thereafter selected 3 to 5 characteristic colonies and transferring to a fresh plate and incubating under similar conditions. From the regrowth, 3 to 5 colonies were selected and suspended in. 10 milliliters of YM broth (Dffco) and incubated for 4 hours at 35°-37° C. shaking at 225 rpm. The 4 hour broth cultures were adjusted optically to 86% transmission resulting in a concentration of 1-5×10^6 cfu/ml which was further diluted 1:100 in YNBD (yeast nitrogen base with 1% dextrose) to obtain a concentration of 1-5×10^4 cfu/ml for use as inocula.
(§2) The test compound, Compound I, was prepared as a stock solution of 128 μg/ml in 20% methanol and 75 μl of said solution delivered to each well in column 1 of a 96-well, U-bottomed microtiter plate. The compounds in column 1 were then serially diluted two-fold to yield concentrations from 32 μg/ml to 0.15 μg/ml.
(§3) Amphotericin, the control compound, was prepared as a stock solution of 512 μg/ml in 10% DMSO and 75 μl of said solution delivered to each well in column 1 of a 96-well, U-bottomed microtiter plate. The compounds in column 1 were then serially diluted two-fold to yield concentrations from 128 μg/ml to 0.6 μg/ml.
(§4) The plates containing the diluted compounds were then inoculated with 75 μl/well of the appropriate microorganism and incubated for 48 hours at 35°-37° C. with MIC (minimum inhibitory concentration) determinations carried out after 24 hours of incubation. Growth and sterility controls for each organism and sterility checks for the compounds also were carded out.
(§5) After recording MICs at 24 hours, the microtiter plates were shaken gently to resuspend the cells. A 1.5 μl sample was transferred from each well of the 96-well microtiter plate to a single reservoir inoculum plate containing SDA. The inoculated SDA and corresponding microtiter plates were incubated for 24 hours at 35°-37° C. For Cryptococus neoformans, SDA plates were inoculated at 48 hours after recording MICs and incubated 48 hours before reading the MFC. MFC is the lowest concentration of compound at which either no growth or growth of ≤4 colonies occur.

C. albicans (CA2) = assay: microbroth dilution assay (MIC/MFC), C. albicans (CA2); type: cell-based; conditions: Candida albicans; for MIC: read-out: Minimum Inhibitory Concentration (MIC); for MFC: read-out: Minimum Fungicidal Concentration (MFC)
Experimental: as §1, §2, §3, §4, §5

C. albicans (CLY539) = assay: microbroth dilution assay (MIC/MFC), C. albicans (CLY539); type: cell-based; conditions: Candida albicans; for MIC: read-out: Minimum Inhibitory Concentration (MIC); for MFC: read-out: Minimum Fungicidal Concentration (MFC)
Experimental: as §1, §2, §3, §4, §5

[2] = tested on: C. guillermondii (MY 1019); assay: microbroth dilution assay (MIC/MFC), C. guillermondii (MY 1019); type: cell-based; conditions: for MIC: read-out: Minimum Inhibitory Concentration (MIC); for MFC: read-out: Minimum Fungicidal Concentration (MFC)
Experimental: as §1, §2, §3, §4, §5

[3] = tested on: C. parapsilosis (MY 1010); assay: microbroth dilution assay (MIC/MFC), C. parapsilosis (MY 1010); type: cell-based; conditions: Lodderomyces parapsilosis; for MIC: read-out: Minimum Inhibitory Concentration (MIC); for MFC: read-out: Minimum Fungicidal Concentration (MFC)
Experimental: as §1, §2, §3, §4, §5

[4] = tested on: C. pseudotropicalis (MY 2099); assay: microbroth dilution assay (MIC/MFC), C. pseudotropicalis (MY 2099); type: cell-based, Candida pseudotropicalis; conditions: Kluyveromyces marxianus; for MIC: read-out: Minimum Inhibitory Concentration (MIC); for MFC: read-out: Minimum Fungicidal Concentration (MFC)
Experimental: as §1, §2, §3, §4, §5

C. glabrata (MY1381) = assay: microbroth dilution assay (MIC/MFC), C. glabrata (MY1381); type: cell-based; conditions: Nakaseomyces glabratus; for MIC: read-out: Minimum Inhibitory Concentration (MIC); for MFC: read-out: Minimum Fungicidal Concentration (MFC)
Experimental: as §1, §2, §3, §4, §5

C. topicalis (MY1012) = assay: microbroth dilution assay (MIC/MFC), C. topicalis (MY1012); type: cell-based; conditions: for MIC: read-out: Minimum Inhibitory Concentration (MIC); for MFC: read-out: Minimum Fungicidal Concentration (MFC)
Experimental: as §1, §2, §3, §4, §5

C. tropicalis (MY1124) = assay: microbroth dilution assay (MIC/MFC), C. tropicalis (MY1124); type: cell-based; conditions: Candida tropicalis; for MIC: read-out: Minimum Inhibitory Concentration (MIC); for MFC: read-out: Minimum Fungicidal Concentration (MFC)
Experimental: as §1, §2, §3, §4, §5

[5] = tested on: Cryptococcus neoformans (MY 2062); assay: microbroth dilution assay (MIC), Cryptococcus neoformans (MY 2062); type: cell-based; conditions: 24 h, read-out: Minimum Inhibitory Concentration (MIC)
Experimental: as §1
(§6) The test compound, Compound I, was prepared as a stock solution of 128 μg/ml in 20% methanol and 75 μl of said solution delivered to each well in column 1 of a 96-well, U-bottomed microtiter plate. The compounds in column 1 were then serially diluted two-fold to yield concentrations from 32 μg/ml to 0.15 μg/ml. […]
(§7) After recording MICs at 24 hours, the microtiter plates were shaken gently to resuspend the cells. […] For Cryptococus neoformans, SDA plates were inoculated at 48 hours after recording MICs and incubated 48 hours before reading the MFC. […]

[6] = tested on: Saccharomyces cerevisiae (MY 2140); assay: microbroth dilution assay (MIC/MFC), Saccharomyces cerevisiae (MY 2140); type: cell-based; conditions: for MIC: read-out: Minimum Inhibitory Concentration (MIC); for MFC: read-out: Minimum Fungicidal Concentration (MFC)
Experimental: as §1, §2, §3, §4, §5

[7] = tested on: Aspergillus fumigatus (MF 4839); assay: microbroth dilution assay (MIC), Aspergillus fumigatus (MF 4839); type: cell-based; conditions: 24 h, read-out: Minimum Inhibitory Concentration (MIC)
Experimental: as §1, §6, §7

A. fumigatus (5668) = assay: microbroth dilution assay (MIC), A. fumigatus (5668); type: cell-based; conditions: Aspergillus fumigatus, 24 h, read-out: Minimum Inhibitory Concentration (MIC)
Experimental: as §1, §6, §7

panel of fungi = assay: broth microdilution assay against a panel of fungi; type: cell-based; conditions: MIC and MFC
Experimental: as §1, §6, §7

[8] = tested on: filamentous fungi (AspergiIlus fiavus, Fusarium oxysporum, usalago zeae and the like); assay: agar plate inhibition zone test, filamentous fungi; type: cell-based; conditions: agar plates, methanol solutions, 28° C. or 37° C., 24 hours
Experimental: Compound I is also useful for inhibiting the growth of filamentous fungi. Such use may be illustrated in the following tests with AspergiIlus fiavus, Fusarium oxysporum, usalago zeae and the like. Inocula for filamentous fungi are prepared by scraping the surface of stock plates maintained on potato dextrose agar with a moistened sterile dacron swab. The spores and mycelia are then suspended in 10 milliliters of sterile potato dextrose broth and adjusted to 70 percent transmission at 660 nm. The samples to be tested for production of antifungal agent are applied directly to the agar plates as methanol solutions. When the sample to be tested is crude broth, it may be centrifuged prior to application. The assay plates are then incubated at either 28° C. or 37° C. for 24 hours. Following incubation, the inhibition zones are measured. Growths are also noted as to appearance.

S. cerevisiae (MY 2141) = assay: microbroth dilution assay (MIC/MFC), S. cerevisiae (MY 2141); type: cell-based; conditions: Saccharomyces cerevisiae
Experimental: as §1, §6, §7

## CCCCCCCCCCC(C)C(O)C(C)/C=C(C)/C=C(\C)C(=O)C(C)/C=C(\C)C(=O)OC(CO)C(O)C(O)C(=O)O (centres unmarked) [Compound I]
[1]; Candida albicans (MY 1055), 24 h, 35°-37° C.
  MIC: 2 µg/mL (≈ 3.35 µM)
[1]; Candida albicans (MY 1055), no growth or ≤4 colonies on SDA after 24 h
  MFC: 2 µg/mL (≈ 3.35 µM)
C. albicans (CA2); C. albicans (CA2), 24 h, 35°-37° C.
  MIC: 2 µg/mL (≈ 3.35 µM)
C. albicans (CA2); C. albicans (CA2), no growth or ≤4 colonies on SDA after 24 h
  MFC: 2 µg/mL (≈ 3.35 µM)
C. albicans (CLY539); C. albicans (CLY539), 24 h, 35°-37° C.
  MIC: 2 µg/mL (≈ 3.35 µM)
C. albicans (CLY539); C. albicans (CLY539), no growth or ≤4 colonies on SDA after 24 h
  MFC: 2 µg/mL (≈ 3.35 µM)
[2]; C. guillermondii (MY 1019), 24 h, 35°-37° C.
  MIC: 4 µg/mL (≈ 6.7 µM)
[2]; C. guillermondii (MY 1019), no growth or ≤4 colonies on SDA after 24 h
  MFC: 16 µg/mL (≈ 26.8 µM)
[3]; C. parapsilosis (MY 1010), 24 h, 35°-37° C.
  MIC: 2 µg/mL (≈ 3.35 µM)
[3]; C. parapsilosis (MY 1010), no growth or ≤4 colonies on SDA after 24 h
  MFC: 2 µg/mL (≈ 3.35 µM)
[4]; C. pseudotropicalis (MY 2099), 24 h, 35°-37° C.
  MIC: 1 µg/mL (≈ 1.68 µM)
[4]; C. pseudotropicalis (MY 2099), no growth or ≤4 colonies on SDA after 24 h
  MFC: 1 µg/mL (≈ 1.68 µM)
C. glabrata (MY1381); C. glabrata (MY1381), 24 h, 35°-37° C.
  MIC: 4 µg/mL (≈ 6.7 µM)
C. glabrata (MY1381); C. glabrata (MY1381), no growth or ≤4 colonies on SDA after 24 h
  MFC: 4 µg/mL (≈ 6.7 µM)
C. topicalis (MY1012); C. topicalis (MY1012), 24 h, 35°-37° C.
  MIC: 1 µg/mL (≈ 1.68 µM)
C. topicalis (MY1012); C. topicalis (MY1012), no growth or ≤4 colonies on SDA after 24 h
  MFC: 0.5 µg/mL (≈ 0.838 µM)
C. tropicalis (MY1124); C. tropicalis (MY1124), 24 h, 35°-37° C.
  MIC: 2 µg/mL (≈ 3.35 µM)
C. tropicalis (MY1124); C. tropicalis (MY1124), no growth or ≤4 colonies on SDA after 24 h
  MFC: 2 µg/mL (≈ 3.35 µM)
[5]; Cryptococcus neoformans (MY 2062), 35°-37° C., SDA plates inoculated at 48 hours after recording MICs
  MIC: 2 µg/mL (≈ 3.35 µM)
[6]; Saccharomyces cerevisiae (MY 2140), 24 h, 35°-37° C.
  MIC: 4 µg/mL (≈ 6.7 µM)
[6]; Saccharomyces cerevisiae (MY 2140), no growth or ≤4 colonies on SDA after 24 h
  MFC: 4 µg/mL (≈ 6.7 µM)
[7]; Aspergillus fumigatus (MF 4839), 35°-37° C.
  MIC: > 32 µg/mL
A. fumigatus (5668); A. fumigatus (5668), 35°-37° C.
  MIC: > 32 µg/mL
Panel of fungi
  effective concentrations against a panel of fungi compared with amphotericin B: effective at concentrations comparable to an established antifungal agent, amphotericin B
[8]
  inhibition of growth of fungal organisms (inhibition zones): effectively inhibit growth of the fungal organisms

## C[C@@H]1[C@H](O)[C@@H](C)/C=C/C=C/C=C/C=C/C=C/C=C/C=C/[C@H](O[C@@H]2O[C@H](C)[C@@H](O)[C@H](N)[C@@H]2O)C[C@@H]2O[C@](O)(C[C@@H](O)C[C@@H](O)[C@H](O)CC[C@@H](O)C[C@@H](O)CC(=O)O[C@H]1C)C[C@H](O)[C@H]2C(=O)O [Amphotericin B]
[1]; Candida albicans, 24 h
  MFC: 1 µg/mL (≈ 1.08 µM)
  MIC: 1 µg/mL (≈ 1.08 µM)
C. albicans (CA2); 24 h
  MFC: 1 µg/mL (≈ 1.08 µM)
  MIC: 1 µg/mL (≈ 1.08 µM)
C. albicans (CLY539); 24 h
  MFC: 2 µg/mL (≈ 2.16 µM)
  MIC: 1 µg/mL (≈ 1.08 µM)
[2]; 24 h
  MFC: 2 µg/mL (≈ 2.16 µM)
  MIC: 1 µg/mL (≈ 1.08 µM)
[3]; 24 h
  MFC: 1 µg/mL (≈ 1.08 µM)
  MIC: 1 µg/mL (≈ 1.08 µM)
[4]; 24 h
  MFC: 2 µg/mL (≈ 2.16 µM)
  MIC: 2 µg/mL (≈ 2.16 µM)
C. glabrata (MY1381); 24 h
  MFC: 2 µg/mL (≈ 2.16 µM)
  MIC: 2 µg/mL (≈ 2.16 µM)
C. topicalis (MY1012); 24 h
  MFC: 16 µg/mL (≈ 17.3 µM)
  MIC: 16 µg/mL (≈ 17.3 µM)
C. tropicalis (MY1124); 24 h
  MFC: 2 µg/mL (≈ 2.16 µM)
  MIC: 2 µg/mL (≈ 2.16 µM)
[5]; Cryptococcus neoformans
  MIC: 1 µg/mL (≈ 1.08 µM)
[6]; Saccharomyces cerevisiae, 24 h
  MFC: 1 µg/mL (≈ 1.08 µM)
  MIC: 1 µg/mL (≈ 1.08 µM)
S. cerevisiae (MY 2141); 24 h, 35°-37° C., read-out: Minimum Inhibitory Concentration (MIC)
  MIC: 1 µg/mL (≈ 1.08 µM)
S. cerevisiae (MY 2141); no growth or ≤4 colonies on SDA after 24 h, read-out: Minimum Fungicidal Concentration (MFC)
  MFC: 1 µg/mL (≈ 1.08 µM)
[7]; Aspergillus fumigatus
  MIC: 2 µg/mL (≈ 2.16 µM)
A. fumigatus (5668)
  MIC: 2 µg/mL (≈ 2.16 µM)
